Measurements from PubChem BioAssay (NCI).
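These data come from cells grown in 96-well plates and exposed to compound for 48 hours at five concentrations. GI50 = concentration required for 50% inhibition of growth. TGI denotes the concentration required for complete inhibition of growth.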

Columns and labels:
Test in all cases: DTP human tumour cell line panel, 48 h
[1] = system: HOP-92 NSCLC
[2] = system: ACHN renal
[3] = system: 786-0 renal
[4] = system: RXF 393 renal
[5] = system: HCT-116 colon
[6] = system: SK-MEL-5 melanoma
[7] = system: SF-268 CNS
[8] = system: PC-3 prostate
[9] = system: MALME-3M melanoma
[10] = system: MCF7 breast
[11] = system: HS 578T breast
[12] = system: HL-60(TB) leukemia
[13] = system: HCC-2998 colon
[14] = system: OVCAR-3 ovarian
[15] = system: SK-MEL-28 melanoma
[16] = system: NCI-H23 lung
[17] = system: LOX IMVI melanoma
[18] = system: NCI-H226 lung
[19] = system: CCRF-CEM leukemia
[20] = system: MOLT-4 leukemia
[21] = system: CAKI-1 renal
[22] = system: COLO 205 colon
[23] = system: NCI-H460 lung
[24] = system: MDA-MB-435
[25] = system: TK-10 renal
[26] = system: OVCAR-5 ovarian
[27] = system: DU-145 prostate
[28] = system: SNB-75 CNS
[29] = system: SK-OV-3 ovarian
[30] = system: SF-539 CNS
[31] = system: RPMI-8226 leukemia
[32] = system: HOP-62 NSCLC
[33] = system: U251 CNS
[34] = system: OVCAR-8 ovarian
[35] = system: OVCAR-4 ovarian
[36] = system: EKVX NSCLC
[37] = system: A549 NSCLC
[38] = system: NCI-H522 lung
[39] = system: BT-549 breast
[40] = system: SN12C renal
[41] = system: NCI/ADR-RES ovarian
[42] = system: KM12 colon
[43] = system: UACC-62 melanoma
[44] = system: M14 melanoma
[45] = system: T-47D breast
[46] = system: SK-MEL-2 melanoma
[47] = system: A498 renal
[48] = system: K-562 leukemia
[49] = system: SW-620 colon
[50] = system: HCT-15 colon
[51] = system: HT29 colon
[52] = system: UACC-257 melanoma
[53] = system: SNB-19 CNS
[54] = system: UO-31 renal
[55] = system: SR leukemia
[56] = system: MDA-MB-231 breast

SMILES: ClCCN(CCCl)c1ccc(-n2cnc3c(Cl)ncnc32)cc1
- GI50 [1]: 10.9 µM
- TGI [1]: 26.1 µM
- GI50 [2]: 1.84 µM
- TGI [2]: 3.54 µM
- GI50 [3]: 14 µM
- TGI [3]: 28.4 µM
- GI50 [4]: 1.86 µM
- TGI [4]: 3.33 µM
- GI50 [5]: 1.82 µM
- TGI [5]: 3.33 µM
- GI50 [6]: 2.36 µM
- TGI [6]: 5.94 µM
- GI50 [7]: 1.81 µM
- TGI [7]: 3.73 µM
- GI50 [8]: 4.38 µM
- TGI [8]: 18.2 µM
- GI50 [9]: 2.17 µM
- TGI [9]: 4.41 µM
- GI50 [10]: 3.68 µM
- TGI [10]: 15.1 µM
- GI50 [11]: 2.95 µM
- TGI [11]: 9.79 µM
- GI50 [12]: 2.5 µM
- TGI [12]: 6.58 µM
- GI50 [13]: 1.84 µM
- TGI [13]: 3.41 µM
- GI50 [14]: 1.77 µM
- TGI [14]: 3.15 µM
- GI50 [15]: 1.94 µM
- TGI [15]: 3.64 µM
- GI50 [16]: 2.02 µM
- TGI [16]: 3.79 µM
- GI50 [17]: 2 µM
- TGI [17]: 4.09 µM
- GI50 [18]: 13.3 µM
- TGI [18]: 27.7 µM
- GI50 [19]: 3.05 µM
- TGI [19]: > 100 µM
- GI50 [20]: 2.99 µM
- TGI [20]: 7.84 µM
- GI50 [21]: 0.697 µM
- TGI [21]: 2.05 µM
- GI50 [22]: 5.74 µM
- TGI [22]: 19.1 µM
- GI50 [23]: 2.14 µM
- TGI [23]: 4.88 µM
- GI50 [24]: 2.04 µM
- TGI [24]: 4.12 µM
- GI50 [25]: 13 µM
- TGI [25]: 81.9 µM
- GI50 [26]: 17.9 µM
- TGI [26]: 35.9 µM
- GI50 [27]: 1.88 µM
- TGI [27]: 3.59 µM
- GI50 [28]: 2.06 µM
- TGI [28]: 7.37 µM
- GI50 [29]: 11 µM
- TGI [29]: 22.9 µM
- GI50 [30]: 5.23 µM
- TGI [30]: 19 µM
- GI50 [31]: 9.69 µM
- TGI [31]: 59.1 µM
- GI50 [32]: 6.94 µM
- TGI [32]: 20.2 µM
- GI50 [33]: 2.91 µM
- TGI [33]: 9.1 µM
- GI50 [34]: 2.37 µM
- TGI [34]: 5.38 µM
- GI50 [35]: 1.85 µM
- TGI [35]: 3.33 µM
- GI50 [36]: 1.65 µM
- TGI [36]: 3.66 µM
- GI50 [37]: 12.5 µM
- TGI [37]: 29.7 µM
- GI50 [38]: 3.84 µM
- TGI [38]: 14.9 µM
- GI50 [39]: 3.51 µM
- TGI [39]: 12.9 µM
- GI50 [40]: 3.17 µM
- TGI [40]: 10.2 µM
- GI50 [41]: 4.15 µM
- TGI [41]: 20.3 µM
- GI50 [42]: 6.16 µM
- TGI [42]: 19.5 µM
- GI50 [43]: 1.81 µM
- TGI [43]: 3.35 µM
- GI50 [44]: 1.96 µM
- TGI [44]: 3.88 µM
- GI50 [45]: 3.28 µM
- TGI [45]: 12.9 µM
- GI50 [46]: 14 µM
- TGI [46]: 27.6 µM
- GI50 [47]: 11.9 µM
- TGI [47]: 24.5 µM
- GI50 [48]: 3.24 µM
- TGI [48]: 9.92 µM
- GI50 [49]: 1.76 µM
- TGI [49]: 3.29 µM
- GI50 [50]: 1.79 µM
- TGI [50]: 3.65 µM
- GI50 [51]: 2.07 µM
- TGI [51]: 4.15 µM
- GI50 [52]: 2.24 µM
- TGI [52]: 5.16 µM
- GI50 [53]: 5.4 µM
- TGI [53]: 17.4 µM
- GI50 [54]: 1.7 µM
- TGI [54]: 3.34 µM
- GI50 [55]: 2.06 µM
- TGI [55]: 6.55 µM
- GI50 [56]: 3.28 µM
- TGI [56]: 11.1 µM
